Each block holds one molecule with its values, some of them ahead of it. Calls of active or inactive are those of the source.
Columns and labels:
[1] = target: Protein Wnt-3a (Mus musculus, UniProt P27467); assay: antagonism of Wnt3a pathway luciferase reporter – Wnt-LIGHT cells, luminescence, selectivity assay for Gli-SUFU antagonist project, dose response (AID 651570); assay type: functional; settings: read-out: IC50_Mean;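 also: Wnt-LIGHT reporter cells stimulated with conditioned medium from Wnt3a-producing cells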
Chain of Protein Wnt-3a (P27467 whole entry): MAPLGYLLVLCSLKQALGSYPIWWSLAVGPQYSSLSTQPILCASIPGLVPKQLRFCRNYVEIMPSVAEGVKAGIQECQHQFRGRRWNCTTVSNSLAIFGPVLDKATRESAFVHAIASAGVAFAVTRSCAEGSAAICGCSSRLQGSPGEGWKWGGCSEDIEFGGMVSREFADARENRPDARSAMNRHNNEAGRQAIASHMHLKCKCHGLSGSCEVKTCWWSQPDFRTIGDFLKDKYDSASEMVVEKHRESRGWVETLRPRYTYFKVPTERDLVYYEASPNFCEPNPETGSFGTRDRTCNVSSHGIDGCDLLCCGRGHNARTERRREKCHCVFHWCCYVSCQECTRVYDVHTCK

[2] = system: INS1; assay: INS-1E survival protection against cytokine death – cell-based, luminescence, retest, dose response (AID 449756); assay type: functional; settings: Rattus norvegicus;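 also: cell death triggered by IL-1 beta plus TNF-alpha plus IFN-gamma mixture; protective hits raise ATP signal compared with cytokine alone wells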
[3] = target: Tyrosine-protein phosphatase non-receptor type 5 (Homo sapiens, UniProt P54829); assay: PTPN5 enzyme inhibition – biochemical, fluorescence intensity, uHTS hits, confirmation (AID 602372); assay type: functional; settings: read-out: IC50_Mean
Chain of Tyrosine-protein phosphatase non-receptor type 5 (P54829 whole entry): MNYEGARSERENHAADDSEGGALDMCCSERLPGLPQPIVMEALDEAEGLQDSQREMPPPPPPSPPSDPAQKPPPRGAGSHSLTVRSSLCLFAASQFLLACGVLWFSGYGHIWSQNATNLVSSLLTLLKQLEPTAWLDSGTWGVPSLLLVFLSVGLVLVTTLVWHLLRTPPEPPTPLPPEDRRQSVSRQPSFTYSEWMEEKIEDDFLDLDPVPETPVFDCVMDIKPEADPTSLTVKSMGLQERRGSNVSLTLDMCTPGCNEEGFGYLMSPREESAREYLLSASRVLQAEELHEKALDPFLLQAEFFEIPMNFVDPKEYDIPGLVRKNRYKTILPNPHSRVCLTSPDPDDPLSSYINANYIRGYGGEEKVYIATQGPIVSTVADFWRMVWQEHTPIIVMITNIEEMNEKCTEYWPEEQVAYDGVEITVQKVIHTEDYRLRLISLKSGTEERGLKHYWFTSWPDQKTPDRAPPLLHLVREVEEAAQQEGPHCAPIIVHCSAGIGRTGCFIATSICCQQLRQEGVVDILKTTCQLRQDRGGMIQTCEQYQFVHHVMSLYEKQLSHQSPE

[4] = target: Dual specificity protein phosphatase 3 (Homo sapiens, UniProt P51452); assay: VHR phosphatase inhibition, dose response, selectivity assay for STEP inhibitor project, biochemical (AID 602374); assay type: functional; settings: read-out: IC50_Mean
Chain of Dual specificity protein phosphatase 3 (P51452 whole entry): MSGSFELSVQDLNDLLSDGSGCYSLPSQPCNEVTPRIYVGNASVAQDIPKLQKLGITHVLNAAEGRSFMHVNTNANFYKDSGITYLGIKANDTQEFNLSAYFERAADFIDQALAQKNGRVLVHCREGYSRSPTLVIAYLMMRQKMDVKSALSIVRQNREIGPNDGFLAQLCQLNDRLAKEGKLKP

[5] = target: Tyrosine-protein phosphatase non-receptor type 11 (Homo sapiens, UniProt Q06124); assay: PTPN11 enzyme inhibitors – biochemical, selectivity assay for STEP inhibitor project, dose response (AID 602367); assay type: functional; settings: read-out: IC50_Mean
[6] = target: T1, Mitochondrial peptide methionine sulfoxide reductase (Bos taurus, UniProt P54149); assay: Absorbance-based biochemical high throughput dose response assay for activators of Methionine sulfoxide reductase A (MsrA).; assay type: functional
T1 sequence (P54149 whole entry): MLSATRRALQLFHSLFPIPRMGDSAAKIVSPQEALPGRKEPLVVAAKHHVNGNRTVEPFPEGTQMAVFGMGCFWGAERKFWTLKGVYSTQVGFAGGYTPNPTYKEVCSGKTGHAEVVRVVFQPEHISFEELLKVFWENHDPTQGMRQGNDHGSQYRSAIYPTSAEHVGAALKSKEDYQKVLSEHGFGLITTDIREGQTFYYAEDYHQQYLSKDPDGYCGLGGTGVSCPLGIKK

[7] = target: Hepatocyte nuclear factor 4-alpha (Homo sapiens, UniProt P41235); assay type: functional, cell-based;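 also: biochemical luminescence-based dose-response counterscreen measuring inhibition of HNF4 dimerization, run alongside a screen for blockers of ABHD5–perilipin-5 interaction; split luciferase complementation of HNF4 fusion proteins in cell lysate measuring dimerization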
Chain of Hepatocyte nuclear factor 4-alpha (P41235 whole entry, the tested form may be a part): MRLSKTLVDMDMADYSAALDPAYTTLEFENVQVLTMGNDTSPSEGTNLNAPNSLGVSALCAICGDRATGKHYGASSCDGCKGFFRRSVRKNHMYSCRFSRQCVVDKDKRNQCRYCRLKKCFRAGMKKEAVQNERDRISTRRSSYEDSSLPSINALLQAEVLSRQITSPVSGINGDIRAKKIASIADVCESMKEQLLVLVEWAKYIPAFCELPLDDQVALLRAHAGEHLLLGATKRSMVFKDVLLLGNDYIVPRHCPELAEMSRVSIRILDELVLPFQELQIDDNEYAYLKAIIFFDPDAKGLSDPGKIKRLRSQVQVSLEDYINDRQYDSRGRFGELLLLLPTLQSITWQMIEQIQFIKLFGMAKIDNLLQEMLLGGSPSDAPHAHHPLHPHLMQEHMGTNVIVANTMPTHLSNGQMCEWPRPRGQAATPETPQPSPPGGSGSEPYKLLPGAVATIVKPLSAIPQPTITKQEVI

SMILES: CC(C)C(=O)NC(=S)/C=C1/N(C)c2ccccc2C1(C)C
IC50 [1]: 9.3 µM (active) | AC50 [2]: 7.53 µM (active)

IC50 [3]: 35.8 µM (inactive) | IC50 [4]: 14.1 µM (active) | IC50 [5]: 33.4 µM (inactive)
SMILES: O=C(N/N=C/c1coc2ccccc2c1=O)c1cc2ccccc2o1

EC50 [6]: > 104 µM (inactive)
SMILES: COc1ccc(OC)c(/C=N/N(CCC#N)C2=NS(=O)(=O)c3ccccc32)c1

IC50 [7]: 3.07 µM (active)
SMILES: O=C(NCc1ccccc1)C(c1cc2ccccc2o1)n1c(=O)c(-c2ccco2)nc2ccccc21 (configuration not stated)

Reference: ChEMBL document CHEMBL1201862, “PubChem BioAssay data set” (2004)
